For experiment [1], the system named is Huh-7. As to the kind of experiment: cells. The settings on record: Homo sapiens, Huh-7, 48 h, read-out: INH.
Description: Anticancer activity against human Huh-7 cells assessed as inhibition of cell viability at 8 uM incubated for 48 hrs by CCK-8 assay (Rvb = 0 +/- 0.88 %)
Experiment [2] addresses T1, Lysine-specific demethylase 4D (Homo sapiens, UniProt Q6B0I6).
T1 sequence (Q6B0I6 whole entry): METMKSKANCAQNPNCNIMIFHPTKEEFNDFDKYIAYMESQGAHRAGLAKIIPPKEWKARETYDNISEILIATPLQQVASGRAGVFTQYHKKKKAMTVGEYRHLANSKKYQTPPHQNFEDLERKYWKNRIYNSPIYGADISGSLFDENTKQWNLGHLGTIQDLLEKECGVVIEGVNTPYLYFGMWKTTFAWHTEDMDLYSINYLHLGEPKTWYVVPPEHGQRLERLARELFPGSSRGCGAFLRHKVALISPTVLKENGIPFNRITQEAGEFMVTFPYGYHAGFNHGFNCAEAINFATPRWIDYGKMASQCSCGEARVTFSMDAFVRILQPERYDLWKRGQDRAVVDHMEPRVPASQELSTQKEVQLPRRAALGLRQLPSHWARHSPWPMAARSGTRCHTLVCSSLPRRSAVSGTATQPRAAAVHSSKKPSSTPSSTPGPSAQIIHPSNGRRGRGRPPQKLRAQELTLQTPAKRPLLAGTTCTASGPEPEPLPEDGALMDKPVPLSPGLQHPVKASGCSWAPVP
As to the kind of experiment: Inhibition of KDM4D (unknown origin) incubated for 60 mins by microplate reader analysis.

The test system of experiment [3] is Huh-7. Particulars: Homo sapiens, Huh-7, 48 h.
For experiment [4], the system named is Huh-7. As to the kind of experiment: Induction of cell cycle arrest in human Huh-7 cells assessed as increase in accumulation of cells at G1 phase at 2 uM by flow cytometry analysis. The format is functional, cell-based.
For experiment [5], the system named is Huh-7. Description: Downregulation of c-Myc expression in human Huh-7 cells by Western blot analysis. The format is functional, cell-based.
Experiment [6] has as its system Huh-7. Description: Inhibition of colony formation in human Huh-7 cells at 2 uM incubated for 72 hrs followed by compound washout and measured after 10 days by crystal violet staining based assay. The format is functional, cell-based.
In experiment [7] the test system is Huh-7. Description: Downregulation of CyclinD1 expression in human Huh-7 cells by Western blot analysis. In kind it is functional, cell-based.
Experiment [8] deals with Huh-7. As to the kind of experiment: Inhibition of cell migration in human Huh-7 cells at 2 uM measured for 24 hrs by wound healing assay. In kind it is functional, cell-based.
Experiment [9] has as its system Huh-7. Description: Induction of cell cycle arrest in human Huh-7 cells assessed as decrease in accumulation of cells at G2/M phase at 2 uM by flow cytometry analysis. In kind it is functional, cell-based.
The subject of experiment [10] is Huh-7. As to the kind of experiment: Induction of cell cycle arrest in human Huh-7 cells assessed as decrease in accumulation of cells at S phase at 2 uM by flow cytometry analysis. The format is functional, cell-based.

Active and inactive are the calls of the source. The rule behind the calls is not given here.

With `O=C(Nc1ccc2nc(-c3ccco3)c(-c3ccco3)nc2c1)N1CCCCCC1`, the inhibition at 8 µM in experiment [1] was determined as 32.8%. This molecule also came in with an IC50 in experiment [2] of 2.95 µM.

As to `O=C1CCCN(C(=S)Nc2ccc3nc(-c4ccco4)c(-c4ccco4)nc3c2)CC1`, in experiment [1], the inhibition at 8 µM stood at 29.5%. This molecule also came in with an IC50 in experiment [2] of 3.97 µM.

On to `S=C(Nc1ccc2nc(-c3ccco3)c(-c3ccco3)nc2c1)N1CCOCC1`, for which, in experiment [1], the inhibition at 8 µM was 30%. In addition, the IC50 in experiment [2] worked out at 3.8 µM.

`COC(=O)CCCNC(=S)Nc1ccc2nc(-c3ccco3)c(-c3ccco3)nc2c1`: the inhibition at 8 µM in [1] is 20.2%. This molecule also registered an IC50 in experiment [2] of 2.41 µM.

In the case of `S=C(NCc1ccncc1)Nc1ccc2nc(-c3ccccn3)c(-c3ccccn3)nc2c1`, in experiment [1], the inhibition at 8 µM came out at 39.8%. This molecule also came in with a concentration for half-maximal inhibition (IC50) in [2] above 50 µM.

Take `S=C(Nc1ccc2nc(-c3ccco3)c(-c3ccco3)nc2c1)N1CCCCCC1`: in [1], the inhibition at 8 µM came to 33.3%. The half-inhibitory concentration (IC50) in [2] is 2.31 µM.

Regarding `S=C(NCc1ccccn1)Nc1ccc2nc(-c3ccc(Br)o3)c(-c3ccc(Br)o3)nc2c1`, the inhibition at 8 µM in [1] is 38.1%. Half-maximal inhibition in experiment [2] (IC50) was put at 13 µM.

With `COc1ccc(CNC(=S)Nc2ccc3nc(-c4ccco4)c(-c4ccco4)nc3c2)cc1`, the inhibition at 8 µM in experiment [1] was found to be 32.9%. In addition, in experiment [2], the IC50 is 3.12 µM.

As for `CCCCNC(=S)Nc1ccc2nc(-c3ccco3)c(-c3ccco3)nc2c1`, the inhibition at 8 µM in experiment [1] turned out to be 30.7%. The same molecule displayed a concentration for half-maximal inhibition (IC50) in experiment [2] of 2.63 µM.

On to `Fc1ccc(CNC(=S)Nc2ccc3nc(-c4ccccn4)c(-c4ccccn4)nc3c2)cc1`, for which, in experiment [1], the inhibition at 8 µM was 37.8%. Moreover, in experiment [2], the IC50 was above 50 µM.

Regarding `S=C(Nc1ccc2nc(-c3ccc(Br)s3)c(-c3ccc(Br)s3)nc2c1)N1CCCCCC1`, in experiment [1], the inhibition at 8 µM came out at 41.5%. For the same molecule, in experiment [2], the IC50 is above 50 µM.

As for `Fc1ccc(CNC(=S)Nc2ccc3nc(-c4cccs4)c(-c4cccs4)nc3c2)cc1`, the inhibition at 8 µM in [1] was found to be 41.8%. For the same molecule, in experiment [2], the IC50 was above 50 µM.

On to `O=C(Nc1ccccc1)C(=S)Nc1ccc2nc(-c3ccco3)c(-c3ccco3)nc2c1`, for which the inhibition at 8 µM in experiment [1] came out at 19.7%. In experiment [2], the IC50 was determined as 7.16 µM.

On to `S=C(Nc1ccccc1)Nc1ccc2nc(-c3ccco3)c(-c3ccco3)nc2c1`, for which the inhibition at 8 µM in [1] amounted to 25.6%. In experiment [2], this molecule gave an IC50 of 4.81 µM.

In the case of `S=C(Nc1ccc2nc(-c3ccc(Br)o3)c(-c3ccc(Br)o3)nc2c1)N1CCCCCC1`, the inhibition at 8 µM in experiment [1] was 25.8%. Further, the IC50 in experiment [2] is 5.98 µM.

`S=C(Nc1ccc2nc(-c3ccco3)c(-c3ccco3)nc2c1)c1ccccc1`: in experiment [1], the inhibition at 8 µM stood at 33.8%. In experiment [2], this molecule had an IC50 of 25.6 µM.

For `O=C(Nc1ccccc1)Nc1ccc2nc(-c3ccco3)c(-c3ccco3)nc2c1`, the inhibition at 8 µM in experiment [1] turned out to be 24.2%. In experiment [2], this molecule came in with an IC50 of 3.7 µM.

Consider `Cc1ccc(-c2nc3ccc(NC(=S)N4CCCCCC4)cc3nc2-c2ccc(C)o2)o1`, for which the IC50 in experiment [3] was 5.23 µM; in experiment [2], 0.62 µM. Further, the result in experiment [4], in experiment [5], in experiment [7], in experiment [9] and in [10] was Active. The inhibition at 8 µM in [1] was 55.5%. Besides, the inhibition entry in [6] and in experiment [8] was “Active” in each case.

As to `Fc1ccc(CNC(=S)Nc2ccc3nc(-c4ccco4)c(-c4ccco4)nc3c2)cc1`, in [1], the inhibition at 8 µM was found to be 33%. The molecule further had a half-maximal inhibitory concentration (IC50) in experiment [2] of 3.23 µM.

Turning to `Fc1ccc(CNC(=S)Nc2ccc3nc(-c4ccc(Br)s4)c(-c4ccc(Br)s4)nc3c2)cc1`, the inhibition at 8 µM in [1] is 28.5%. The same molecule registered a concentration for half-maximal inhibition (IC50) in experiment [2] above 50 µM.

For `O=[N+]([O-])c1ccc(CNC(=S)Nc2ccc3nc(-c4ccco4)c(-c4ccco4)nc3c2)cc1`, the inhibition at 8 µM in experiment [1] was determined as 19.4%. The molecule also yielded an IC50 in experiment [2] of 3.66 µM.

Consider `S=C(Nc1ccc2nc(-c3ccco3)c(-c3ccco3)nc2c1)Nc1ccccn1`, for which, in [1], the inhibition at 8 µM turned out to be 16%. This molecule also returned an IC50 in [2] of 2.46 µM.

For `S=C(Nc1ccc2nc(-c3ccccn3)c(-c3ccccn3)nc2c1)N1CCCCCC1`, the inhibition at 8 µM in [1] came to 39.1%. For the same molecule, in [2], the IC50 was above 50 µM.

Consider `S=C(NCc1ccccn1)Nc1ccc2nc(-c3ccccn3)c(-c3ccccn3)nc2c1`, for which, in experiment [1], the inhibition at 8 µM worked out at 30.3%. Further, the IC50 in experiment [2] is above 50 µM.

Source of the values: ChEMBL document CHEMBL6083265, “Design, synthesis and biological evaluation of 4,6-diarylquinoxaline-based KDM4D inhibitors” (Bioorg Med Chem, 2024).
